2 compounds from patent US11235066B2, “Micelles and methods” (THE REGENTS OF THE UNIVERSITY OF MICHIGAN, priority 2015, dated 2022) can be followed below.

Data set [1] in a line: Body weight and physical signs during therapy. The format is in vivo, CPC; Apc mice. As to conditions: vs no treatment (NSS) and plain rapamycin micelles. On the procedure:
The number of mice (number of adenomas) at the end of the study were n=5 (20), 6 (24), 5 (22), and 7 (21), respectively. Two mice (one in NSS group and one in unlabeled (plain) rapamycin micelle group) died from unexplained cause. […] Mice underwent endoscopy every ˜4 days to monitor adenoma regression and were weighed every 2 days for 5 weeks. A total of n=230 colonoscopy examinations was performed.
A linear mixed effects regression models was used to assess efficacy and toxicity. An interaction between treatment groups and time (days) was estimated in the model to compare adenoma regression rates among the different rapamycin formulations. The model has two random effects to incorporate a correlation between data measured on the same adenoma and a correlation between adenomas found within the same animal. For weights, only one random effect was used to model the correlation between data from the same animal. A comparison was considered significant if P<0.01 to adjust for multiple comparisons. All analyses were performed using SAS ver 9.3. Unless stated otherwise, all data were tested for normality. A one-way ANOVA or non-parametric Kruskal-Wallis was used to determined statistical significance for comparisons among more than 2 groups. If there was at least one difference between treatment groups, multiple comparisons were used to search for pairwise differences. […]

For data set [2] the following is noted: mouse, in vivo.
Procedure: All tissues (heart, spleen, kidney, liver, and colon) were fixed in phosphate-buffered formalin for 24 h, paraffin-embedded, and cut in 10 μm sections. Routine histology (H&E) was performed. Renal toxicity was assessed after completion of therapy. Histology (H&E) from representative murine kidney sections (n=4) from the different treatment groups were evaluated for tubules with vacuoles on five random fields (400× magnification) for each specimen.
The test system of the next data set is colonic adenomas. Put plainly: In vivo fluorescence endoscopy of Cy5.5-labeled peptides binding to colonic adenomas. More on the design: species or system CPC; Apc mouse. As to conditions: Cy5.5-labeled peptide, 200 μM via tail vein, 1 hour circulation. The text has this: Our laboratory has previously identified a group of peptides that bind specifically to colonic adenomas in the CPC; Apc mouse. Peptides […] (SEQ ID NO: 3), KCCFPAQ (SEQ ID NO: 9), LTTHYKL (SEQ ID NO: 18), and AKPGYLS (SEQ ID NO: 17) were identified using phage display technology. Peptides YTTTNAS (SEQ ID NO: 64) and DNEPIAQ (SEQ ID NO: 65) were included as controls. These peptides were identified based on an unbiased screen of cells and tissues to maximize specific binding in vivo. The peptides were labeled with Cy5.5 and injected via tail vein at a concentration of 200 μM in 1×PBS. The peptides were allowed to circulate for 1 hour to allow for non-specific binding to clear. The colon was rinsed again with tap water. Fluorescence images were then collected. […] Fluorescence images for each adenoma were analyzed by defining a region of interest (ROI) around the adenoma and adjacent normal-appearing mucosa using ImageJ software. The mean values were calculated for each ROI, and the T/B ratio was determined. The mean T/B ratio for each peptide was calculated, and Kruskal-Wallis and Dunn's multiple comparison tests were used to determine statistical differences. […]
We performed in vivo imaging of colon in CPC; Apc mice to select the peptide to label the micelles. […] Adenomas with diameter of >1.5 mm were identified, and the location from the anus was recorded. […]

Take `CO[C@H]1C[C@@H]2CC[C@@H](C)[C@@](O)(O2)C(=O)C(=O)N2CCCC[C@H]2C(=O)O[C@H]([C@H](C)C[C@@H]2CC[C@@H](O)[C@H](OC)C2)CC(=O)[C@H](C)/C=C(\C)[C@@H](O)[C@@H](OC)C(=O)[C@H](C)C[C@H](C)/C=C/C=C/C=C/1C` [free rapamycin, Rapamycin]: the body weight entry in data set [1] was “gained more weight”. Further, in data set [2], the “renal toxicity: number of vacuolated tubules per high-power field” value was “significantly greater number of vacuoles”.

For the compound LTTHYKL (SEQ ID NO: 18) [LTT*], the results for the “target-to-background (T/B) ratio, in vivo fluorescence” value in the data set with colonic adenomas and in the data set with colonic adenomas (listed as LTTHYKL) were “strongest binding” and “highest mean value”, respectively.
